Test results as given in patent US8354436B2 (4SC Discovery GmbH, priority 2011, dated 2013).

Experiments:
Format in all cases: cell-based
IL-17FF = IL-17FF production by PHA-stimulated human PBMC (human IL-17F ELI-Pair); settings: PHA-stimulated human PBMC, 48 hours; column B; read-out: IC50 (IL-17FF)
Summary of the method: (§1)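 PBMC from healthy donors, 1×10^5/well, 2 μg/ml PHA + compound, 48 h. Supernatant cytokine by Luminex bead assay or ELISA as listed. Screen at 10/1/0.1/0.01 μM; IC50 via semilog titration.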

IFN-γ = IFN-γ production by PHA-stimulated human PBMC (OptEIA human IFN-g ELISA); settings: PHA-stimulated human PBMC, 48 hours; column C; read-out: IC50 (IFNγ)
Summary of the method: as §1

[1] = tested on: PBMC from healthy human donors; test: T cell proliferation assay (PHA-stimulated human PBMC, BrdU ELISA); settings: PHA-stimulated human PBMC, 48 hours, column D, read-out: IC50 (Tcell proliferation)
Summary of the method: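 Healthy-donor PBMC isolated on Ficoll, seeded at 1×10⁵ cells/well in RPMI with 10% dialysed FCS, stimulated with 2 μg/ml PHA in presence of test compound. Proliferation read after 48 hours by BrdU-incorporation ELISA.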

IL-17AA/AF = IL-17AA/AF production by PHA-stimulated human PBMC (Luminex BioPlex assay); settings: 48 hours, column A, values marked with *, read-out: IC50 (IL-17AA), values marked with * determined by Luminex assay on IL17AA/AF
Description: Analysis of Proliferation of and Cytokine Production by Human PBMC Stimulated with PHA
Peripheral blood mononuclear cells (PBMC) from healthy human donors were purified using Accuspin™ System-Histopaque-1077 (Sigma) according to the protocol recommended by the manufacturer. Purified PBMC were then washed twice with phosphate-buffered saline (PBS) and resuspended in RPMI1640 culture medium supplemented with 10% dialyzed heat inactivated fetal calf serum, 1.5 mM L-glutamine, 100 U penicillin/ml, and […] (all from PAN Biotech, Aidenbach, Germany). For stimulation, PBMC were seeded at 1×10^5 cells/well, activated with 2 μg/ml phytohaemagglutinin (PHA, Sigma) and incubated with the test compounds for 48 hours. IL-17A, IL-17F and INF-γ were then determined in the culture supernatant using a Luminex BioPlex system, following the manufacturer's instructions (BioRad, Munich, Germany). For screening, compounds were used at 10, 1, 0.1 and 0.01 μM. To determine the IC50, compounds were titrated semilogarithmically.
Cytokines were determined in the aforementioned culture supernatant using the following methods: IL-17AA/AF was measured using the Luminex BioPlex system (BioRad, Munich, Germany); IL-17AA using the human homodimer IL-17A ELISA Ready Set Go Kit from eBioscience (Frankfurt, Germany); IL-17FF using the human IL-17F ELI-Pair from Hölzel DiagnosticaGmBH (Köln, Germany); and IFN-γ using the OptEIA human IFN-g ELISA from BD Bioscience (Heidelberg, Germany), all following the manufacturer's instructions.

IC50 (IL-17FF)	IC50 (IFN-γ)	IC50 (IL-17AA/AF)	Compound	IC50 [1]
< 10 nM	< 10 nM	10 to 100 nM	CSC(=O)c1c(-c2c(F)cccc2Cl)noc1-c1cnn(-c2cccc(Cl)c2)c1C(F)(F)F [Example I-126, S-methyl 3-(2-chloro-6-fluorophenyl)-5-(1-(3-chlorophenyl)-5-(trifluoromethyl)-1H-pyrazol-4-yl)isoxazole-4-carbothioate]	< 10 nM
< 10 nM	< 10 nM	< 10 nM	CSC(=O)c1c(-c2c(F)cccc2Cl)noc1-c1cnn(-c2cccc(F)c2)c1C(F)(F)F [Example I-128, S-methyl 3-(2-chloro-6-fluorophenyl)-5-(1-(3-fluorophenyl)-5-(trifluoromethyl)-1H-pyrazol-4-yl)isoxazole-4-carbothioate]	< 10 nM
< 10 nM	< 10 nM	< 10 nM	COC(=O)c1c(-c2c(F)cccc2Cl)noc1-c1cnn(-c2cccc(F)c2)c1C(F)(F)F [Example I-5, methyl 3-(2-chloro-6-fluorophenyl)-5-(1-(3-fluorophenyl)-5-(trifluoromethyl)-1H-pyrazol-4-yl)isoxazole-4-carboxylate]	< 10 nM
10 to 100 nM	10 to 100 nM	100 to 1000 nM	CNC(=O)c1c(-c2c(F)cccc2Cl)noc1-c1cnn(-c2cccc(F)c2)c1C(F)(F)F [Example I-62, 3-(2-chloro-6-fluorophenyl)-5-(1-(3-fluorophenyl)-5-(trifluoromethyl)-1H-pyrazol-4-yl)-N-methylisoxazole-4-carboxamide]	10 to 100 nM
